{"source": "patent US6979436B2", "about": "“Opioid metallopeptide compositions and methods” (Palatin Technologies, Inc., priority 1999, dated 2005)", "key": {"[1]": {"biological_target": "δ receptors, mouse vas deferens (MVD) (Mus musculus, UniProt P32300)", "sequence (P32300 whole entry)": "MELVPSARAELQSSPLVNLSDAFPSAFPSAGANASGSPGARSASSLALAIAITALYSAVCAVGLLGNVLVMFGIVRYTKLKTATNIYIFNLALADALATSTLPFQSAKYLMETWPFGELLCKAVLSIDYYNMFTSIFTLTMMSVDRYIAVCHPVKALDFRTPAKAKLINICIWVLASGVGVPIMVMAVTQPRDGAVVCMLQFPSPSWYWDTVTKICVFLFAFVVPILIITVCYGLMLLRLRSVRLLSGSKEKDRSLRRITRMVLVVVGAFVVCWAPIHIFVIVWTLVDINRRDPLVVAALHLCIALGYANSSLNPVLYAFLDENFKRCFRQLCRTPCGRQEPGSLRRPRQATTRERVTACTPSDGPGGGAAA", "experiment": "mouse vas deferens (MVD) in vitro functional assay", "conditions": "for MVD observed percent efficacy at 10 μM: value in brackets; for MVD functional activity class / EC50: mouse vas deferens; for EC50: read-out: In Vitro Functional Assay [ED50 in μM] MVD, rhenium-complexed peptides"}, "[2]": {"tested_on": "μ receptors, guinea pig ileum (GPI)", "experiment": "guinea pig ileum (GPI) in vitro functional assay", "conditions": "for EC50: read-out: In Vitro Functional Assay [ED50 in μM] GPI, rhenium-complexed peptides; for EC50 / GPI functional activity class: guinea pig ileum; for GPI observed percent efficacy at 10 μM: value in brackets"}, "κ opiate receptor": {"biological_target": "κ opiate receptor (Cavia porcellus, UniProt P41144)", "sequence (P41144 whole entry)": "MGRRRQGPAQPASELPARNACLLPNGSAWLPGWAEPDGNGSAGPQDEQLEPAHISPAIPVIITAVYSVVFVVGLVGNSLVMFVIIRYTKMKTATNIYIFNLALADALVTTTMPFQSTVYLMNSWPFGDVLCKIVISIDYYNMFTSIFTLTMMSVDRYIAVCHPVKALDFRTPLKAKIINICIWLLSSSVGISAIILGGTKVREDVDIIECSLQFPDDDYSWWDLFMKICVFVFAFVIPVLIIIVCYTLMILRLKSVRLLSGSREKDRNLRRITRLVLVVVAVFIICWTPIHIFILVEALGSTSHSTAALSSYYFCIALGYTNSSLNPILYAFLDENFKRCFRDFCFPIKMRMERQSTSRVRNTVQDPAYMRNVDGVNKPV", "experiment": "κ receptor binding assay, guinea-pig brain membrane, 3H-U69593 displacement", "conditions": "read-out: Receptor Binding Assay [Ki in μM] Kappa Receptor"}}, "note": "Non-standard residues stand in square brackets, D forms with d. No end group written: not given here. hTyr = N[C@@H](CCc1ccc(O)cc1)C(=O)O; hPhe = N[C@@H](CCc1ccccc1)C(=O)O; Phg = N[C@H](C(=O)O)c1ccccc1; Ava = NCCCCC(=O)O; βAla = NCCC(=O)O"}
{"substance": "(p-OH)—C6H4(CH2)2—NH—CO—CH(NH2)—(CH2)2—CO-Gly-Phe-D-Cys-NH2", "values": [{"measurement": "MVD observed percent efficacy at 10 μM", "setting": "[1]", "value": 9, "unit": "%"}]}
{"substance": "HTyr-β-Ala-Gly-Phe-Cys-NH2 ([hTyr][βAla]GFC-NH2; also: rhenium complex)", "values": [{"measurement": "MVD observed percent efficacy at 10 μM", "setting": "[1]", "value": 30, "unit": "%"}]}
{"substance": "HTyr-β-Ala-Gly-Phe-D-Cys-NH2", "values": [{"measurement": "MVD observed percent efficacy at 10 μM", "setting": "[1]", "value": 11, "unit": "%"}]}
{"substance": "Leu-Enkephalin [reference compound]", "values": [{"measurement": "EC50", "setting": "[2]", "value": 0.246, "unit": "µM"}]}
{"substance": "Lys-Tyr-Cys-OH", "values": [{"measurement": "MVD observed percent efficacy at 10 μM", "setting": "[1]", "value": 41, "unit": "%"}, {"measurement": "GPI observed percent efficacy at 10 μM", "setting": "[2]", "value": 34, "unit": "%"}]}
{"substance": "NH2(CH2)4—CO-Phe-Asp-Cys-HTyr-NH2 ([Ava]FDC[hTyr]-NH2; also: rhenium complex)", "values": [{"measurement": "MVD observed percent efficacy at 10 μM", "setting": "[1]", "value": 20, "unit": "%"}]}
{"substance": "Tyr-Ala-Cys-HPhe-NH2 (YAC[hPhe]-NH2; also: rhenium complex)", "values": [{"measurement": "MVD functional activity class", "setting": "[1]", "value": "WPA"}, {"measurement": "GPI functional activity class", "setting": "[2]", "value": "WPA"}]}
{"substance": "Tyr-Ala-Cys-Phe-NH2 (YACF-NH2; also: rhenium complex)", "values": [{"measurement": "MVD functional activity class", "setting": "[1]", "value": "WPA"}, {"measurement": "GPI functional activity class", "setting": "[2]", "value": "WPA"}]}
{"substance": "Tyr-Ala-Cys-Phg-NH2 (YAC[Phg]-NH2; also: rhenium complex)", "values": [{"measurement": "GPI functional activity class", "setting": "[2]", "value": "WPA"}]}
{"substance": "Tyr-Ala-Phe-Cys-OH (YAFC-OH; also: rhenium complex)", "values": [{"measurement": "MVD observed percent efficacy at 10 μM", "setting": "[1]", "value": 48, "unit": "%"}, {"measurement": "GPI observed percent efficacy at 10 μM", "setting": "[2]", "value": 8, "unit": "%"}]}
{"substance": "Tyr-Cys-Gly-Cys-NH2 (YCGC-NH2; cysteine pairing not given here; also: rhenium complex)", "values": [{"measurement": "MVD observed percent efficacy at 10 μM", "setting": "[1]", "value": 34, "unit": "%"}, {"measurement": "GPI observed percent efficacy at 10 μM", "setting": "[2]", "value": 14, "unit": "%"}]}
{"substance": "Tyr-Gly-Cys-HPhe-NH2 (YGC[hPhe]-NH2; also: rhenium complex)", "values": [{"measurement": "MVD functional activity class", "setting": "[1]", "value": "WPA"}, {"measurement": "GPI functional activity class", "setting": "[2]", "value": "WPA"}]}
{"substance": "Tyr-Gly-Cys-Phg-NH2 (YGC[Phg]-NH2; also: rhenium complex)", "values": [{"measurement": "MVD functional activity class", "setting": "[1]", "value": "WPA"}, {"measurement": "GPI functional activity class", "setting": "[2]", "value": "WPA"}]}
{"substance": "Tyr-Lys-Cys-OH", "values": [{"measurement": "MVD observed percent efficacy at 10 μM", "setting": "[1]", "value": 48, "unit": "%"}, {"measurement": "GPI observed percent efficacy at 10 μM", "setting": "[2]", "value": 41, "unit": "%"}]}
{"substance": "Tyr-Val-Cys-Phe-NH2 (YVCF-NH2; also: rhenium complex)", "values": [{"measurement": "MVD [ED30]", "setting": "[1]; ED30 instead of ED50", "value": "1.42 ± 0.21", "unit": "µM"}]}
{"substance": "Tyr-[dK]-Cys-OH", "values": [{"measurement": "MVD observed percent efficacy at 10 μM", "setting": "[1]", "value": 9, "unit": "%"}, {"measurement": "GPI observed percent efficacy at 10 μM", "setting": "[2]", "value": 57, "unit": "%"}]}
{"substance": "Tyr-β-Ala-Gly-Phe-Cys-NH2 (Y[βAla]GFC-NH2; also: rhenium complex)", "values": [{"measurement": "MVD observed percent efficacy at 10 μM", "setting": "[1]", "value": 22, "unit": "%"}]}
{"substance": "YAGFC [Tyr-Ala-Gly-Phe-Cys-NH2]", "values": [{"measurement": "EC50", "setting": "[1]", "value": "> 10", "unit": "µM"}, {"measurement": "EC50", "setting": "[2]", "value": "> 10", "unit": "µM"}]}
{"substance": "YCGFC [Tyr-Cys-Gly-Phe-Cys-NH2]", "values": [{"measurement": "Ki", "setting": "κ opiate receptor", "value": 2.1, "unit": "µM"}, {"measurement": "EC50", "setting": "[2]", "value": 0.612, "unit": "µM"}]}
{"substance": "YC[dF]G-NH2", "values": [{"measurement": "EC50", "setting": "[1]", "value": "> 10", "unit": "µM"}, {"measurement": "EC50", "setting": "[2]", "value": "> 10", "unit": "µM"}]}
{"substance": "YGCF [Tyr-Gly-Cys-Phe-NH2]", "values": [{"measurement": "EC50", "setting": "[1]", "value": 1.35, "unit": "µM"}, {"measurement": "EC50", "setting": "[2]", "value": "> 10", "unit": "µM"}]}
{"substance": "YGGCF [Tyr-Gly-Gly-Cys-Phe-NH2]", "values": [{"measurement": "EC50", "setting": "[1]", "value": "> 10", "unit": "µM"}, {"measurement": "EC50", "setting": "[2]", "value": "> 10", "unit": "µM"}]}
{"substance": "YG[dF]C-NH2", "values": [{"measurement": "EC50", "setting": "[1]", "value": "> 10", "unit": "µM"}, {"measurement": "EC50", "setting": "[2]", "value": "> 10", "unit": "µM"}]}
{"substance": "Y[dA]CF-NH2", "values": [{"measurement": "MVD observed percent efficacy at 10 μM", "setting": "[1]", "value": 16, "unit": "%"}, {"measurement": "GPI [ED40]", "setting": "[2]; ED40 instead of ED50", "value": "3.06 ± 0.29", "unit": "µM"}]}
{"substance": "Y[dK]CF", "values": [{"measurement": "EC50", "setting": "[2]", "value": "3.03 ± 0.43", "unit": "µM"}]}
{"substance": "Y[βAla]FGC-OH", "values": [{"measurement": "MVD observed percent efficacy at 10 μM", "setting": "[1]", "value": 17, "unit": "%"}, {"measurement": "GPI observed percent efficacy at 10 μM", "setting": "[2]", "value": 51, "unit": "%"}]}
{"substance": "Y[βAla]GF[dC]-NH2", "values": [{"measurement": "MVD observed percent efficacy at 10 μM", "setting": "[1]", "value": 30, "unit": "%"}]}
{"substance": "[dK]-Tyr-Cys-OH", "values": [{"measurement": "MVD observed percent efficacy at 10 μM", "setting": "[1]", "value": 18, "unit": "%"}, {"measurement": "GPI observed percent efficacy at 10 μM", "setting": "[2]", "value": 28, "unit": "%"}]}
